For 17 molecules, EC50 results are on record in patent publication US11666577B2 (National Institute of Biological Sciences, Beijing, priority 2018, dated 2023).

In the assay the test system is HT-29 cells. Description: Necroptosis assay (TNF-α/Smac mimetic/z-VAD, TSZ-induced) in HT-29 cells. Format: cell-based, human. The method, boiled down: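 HT-29 cells were challenged with 20 ng/ml TNF-α, 100 nM Smac mimetic and 20 mM z-VAD while compound was added at the same time (library screen at 10 mM). After 24 h, viability was read as ATP luminescence (CellTiter-Glo) and normalized to DMSO-treated cells; values are means ± SD of duplicates.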

The mark [1] stands for this setting: Series 1 (Table 1) compounds 1-146, HT-29 cells, TNF-α/Smac mimetic/z-VAD, 24 hrs, cell viability by ATP level, read-out: Series 1 compound necroptosis activity.
The mark [2] stands for this setting: Series 1 (Table 1) compounds 147-176, activity extrapolated, read-out: Series 1 compound necroptosis activity (extrapolated).
[3] abbreviates: Homo sapiens, Series 1 (Table 1) compounds 1-146, HT-29 cells, TNF-α/Smac mimetic/z-VAD, 24 hrs, cell viability by ATP level, read-out: Series 1 compound necroptosis activity.

The structures appear in SMILES notation. Where two headings read alike, the source gives them in different places.

With `Cn1c(=O)c2c(nc(S(=O)(=O)CCc3cn(CCOCCOCCOCCNC(=O)CCCC[C@@H]4SCC5NC(=O)NC54)nn3)n2C)n(C)c1=O` (stereo partly drawn) [Compound 25, 5-((4S)-2-oxohexahydro-1H-thieno[3,4-d]imidazol-4-yl)-N-(2-(2-(2-(2-(4-(2-(1,3,7-trimethyl-2,6-dioxo-2,3,6,7-tetrahydro-1H-purin-8-ylsulfonyl)ethyl)-1H-1,2,3-triazol-1-yl)ethoxy)ethoxy)ethoxy)ethyl)pentanamide], under setting [1], the EC50 was 1 to 1000 µM. Turning to `Cn1c(=O)c2c(nc(S(=O)(=O)CCc3ccccc3)n2C)n(CC#Cc2ccc3nc[nH]c3c2)c1=O` [Compound 164], the EC50 under setting [2] was 1 to 1000 µM. For `Cn1c(=O)c2c(nc(S(=O)(=O)Cc3cccc(C4(C(F)(F)F)N=N4)c3)n2C)n(C)c1=O` [Compound 40, 1,3,7-trimethyl-8-(3-(3-(trifluoromethyl)-3H-diazirin-3-yl)benzylsulfonyl)-1H-purine-2,6(3H,7H)-dione], the EC50 under setting [1] lay in the range of 1 to 1000 µM. As for `C#CCn1c(=O)n(C)c(=O)c2c1nc(S(C)(=O)=O)n2C` [Compound 106, 1,7-dimethyl-8-(methylsulfonyl)-3-(prop-2-ynyl)-1H-purine-2,6(3H,7H)-dione], under setting [3], the EC50 lay in the range of 1 to 10 µM. Consider `CNS(=O)(=O)c1nc2c(c(=O)n(C)c(=O)n2CC#Cc2cccc(O)c2)n1C` [Compound 157], for which the EC50 under setting [2] was 1 to 1000 µM. With `CCCNc1cccc(C#CCn2c(=O)n(C)c(=O)c3c2nc(S(C)(=O)=O)n3C)c1` [Compound 162], the EC50 under setting [2] was 1 to 1000 µM. In the case of `CCn1c(S(=O)(=O)CC2CC2)nc2c1c(=O)n(C)c(=O)n2C` [Compound 82], under setting [3], the EC50 was in the range of 1 to 100 µM. The same measure, in the same setting: with `CCCS(=O)(=O)c1nc2c(c(=O)n(C)c(=O)n2C)n1C` [Compound 10, 1,3,7-trimethyl-8-(propylsulfonyl)-1H-purine-2,6(3H,7H)-dione] the figure was 1 to 100 µM; with `Cn1c(=O)c2c(nc(S(=O)(=O)CC3CC3)n2C)n(CC#Cc2cccc(Cl)c2)c1=O` [Compound 119, 3-(3-(3-chlorophenyl)prop-2-yn-1-yl)-8-((cyclopropylmethyl)sulfonyl)-1,7-dimethyl-3,7-dihydro-1H-purine-2,6-dione], 1 to 10 µM. In the case of `Cn1c(=O)c2c(nc(S(=O)(=O)CCCO)n2C)n(C)c1=O` [Compound 3], the EC50 (Homo sapiens, Series 2 (Table 2) compounds, HT-29 necroptosis assay, read-out: Series 2 compound necroptosis activity) lay in the range of 0.1 to 10 µM.

As to `CNc1cc(C#CCn2c(=O)n(C)c(=O)c3c2nc(S(=O)(=O)CC2CC2)n3C)ccn1` [Compound 126, 8-((cyclopropylmethyl)sulfonyl)-1,7-dimethyl-3-(3-(2-(methylamino)pyridin-4-yl)prop-2-yn-1-yl)-3,7-dihydro-1H-purine-2,6-dione], the EC50 (Series 1 (Table 1) compounds, HT-29 cells, TNF-α/Smac mimetic/z-VAD, 24 hrs, cell viability by ATP level, read-out: Series 1 compound necroptosis activity) fell in the range of 0.001 to 1 µM. On to `Cn1c(=O)c2c(nc(S(=O)(=O)CCN)n2C)n(CC#Cc2cccc(O)c2)c1=O` [Compound 150], for which, under setting [2], the EC50 is 1 to 1000 µM.

With `COc1cccc(CS(=O)(=O)c2nc3c(c(=O)n(C)c(=O)n3C)n2C)c1` [Compound 36, 8-(3-methoxybenzylsulfonyl)-1,3,7-trimethyl-1H-purine-2,6(3H,7H)-dione], under setting [1], the EC50 lay within 1 to 1000 µM. `Cn1c(=O)c2c(nc(S(=O)(=O)Cc3cccc(C#N)c3)n2C)n(C)c1=O` [Compound 43, 3-((1,3,7-trimethyl-2,6-dioxo-2,3,6,7-tetrahydro-1H-purin-8-ylsulfonyl)methyl)benzonitrile]: under setting [1], the EC50 fell in the range of 1 to 1000 µM. `COc1cc(CS(=O)(=O)c2nc3c(c(=O)n(C)c(=O)n3C)n2C)cc(OC)c1` [Compound 59, 8-(3,5-dimethoxybenzylsulfonyl)-1,3,7-trimethyl-1H-purine-2,6(3H,7H)-dione]: for the setting “read-out: Series 1 compound necroptosis activity”, the EC50 was 1 to 1000 µM. As for `CNc1cc(C#CCn2c(=O)n(C)c(=O)c3c2nc(S(C)(=O)=O)n3C)ccc1N1CCN(C)CC1` [Compound 175], under setting [2], the EC50 is 1 to 1000 µM.

For the molecule `COc1ccc(OC)c(CS(=O)(=O)c2nc3c(c(=O)n(C)c(=O)n3C)n2C)c1` [Compound 58, 8-(2,5-dimethoxybenzylsulfonyl)-1,3,7-trimethyl-1H-purine-2,6(3H,7H)-dione], the EC50 under setting [3] is 1 to 10 µM.
